IC50 data for 25 compounds are collected here from patent US7211572B2 (Japan Tobacco Inc., priority 2003, dated 2007).

Molecules are shown by their SMILES. Where a name gives a salt, the structure may show the parent alone.

One may read the IC50 as the concentration that gives 50% inhibition.

In this experiment the target is T1, HIV integrase (Human immunodeficiency virus type 1 group M subtype B, UniProt P12497, F1332H).
T1 construct: HIV integrase full length gene; made in house; host or cells: Escherichia coli BL21(DE3), plasmid pET21a-INH
Description: Determination of enzyme (HIV integrase) inhibitory activity. The experiment is classed as biochemical. The settings on record: recombinant HIV integrase (F185H), strand transfer ELISA, absorbance at 450 nm. The source says:
The following explains evaluation methods of the HIV integrase inhibitory activity of the compound of the present invention.
(i) Construction of Recombinant Integrase Gene Expression System
The 185th phenylalanine of HIV integrase full length gene (J. Virol., 67, 425–437 (1993)) was substituted by histidine and inserted into the restriction enzyme NdeI and XhoI sites of plasmid pET21a(+) (Novagen), whereby an integrase expression vector pET21a-INH was constructed.
(ii) Production and Purification of Integrase Protein
Escherichia coli recombinant BL21(DE3) transformed with plasmid pET21a-INH obtained in (i) was shake cultured at 37° C. in a liquid medium containing ampicillin. When the culture reached the logarithmic growth phase, isopropyl-β-D-thiogalactopyranoside was added to promote expression of integrase gene. The culture was continued for 3 hr to promote accumulation of the integrase protein. The recombinant E. coli was collected in pellets by centrifugal separation and preserved at −80° C.
The E. coli was suspended in Lysis buffer (20 mM HEPES (pH 7.5), 5 mM DTT, 10 mM CHAPS, 10% glycerol) containing 1M sodium chloride and subjected to repeat pressurization and depressurization for rupture, and centrifugal separation at 4° C., 40,000×g, 60 min to recover a water-soluble fraction (supernatant). This was diluted 10-fold with Lysis buffer free of sodium chloride, mixed with SP-Sepharose (Pharmacia Corporation) and stirred at 4° C. for 30 min to allow adsorption of integrase protein to the resin. The resin was washed with Lysis buffer containing 100 mM sodium chloride and the integrase protein was eluted with Lysis buffer containing 1M sodium chloride.
The eluted integrase protein solution was applied to a Superdex 75 (Pharmacia Corporation) column for gel filtration. The protein was eluted with Lysis buffer containing 1M sodium chloride.
The obtained fractions of the integrase protein were collected and preserved at −80° C.
(iii) Preparation of DNA Solution
The following DNA synthesized by Greiner was dissolved in TE buffer (10 mM Tris-hydrochloric acid (pH 8.0), 1 mM EDTA) and mixed with donor DNA, target DNA, and each complementary strand (+ and − strands) to 1 μM. The mixture was heated at 95° C. for 5 min, 80° C. for 10 min, 70° C. for 10 min, 60° C. for 10 min, 50° C. for 10 min and 40° C. for 10 min and preserved at 25° C. to give a double stranded DNA, which was used for the test.
Donor DNA (− strand having biotin attached to the 5′ terminal)
(iv) Determination of Enzyme (HIV Integrase) Inhibitory Activity
The donor DNA was diluted with TE buffer to 10 nM, of which 50 μl was added to each well of streptavidin-coated microtiter plate (Roche) and allowed to adsorb at 37° C. for 60 min. The DNA was washed with phosphate buffer (Dulbecco PBS, Sanko Junyaku Co., Ltd.) containing 0.1% Tween 20 and phosphate buffer. Then, a reaction mixture (70 μl) having the following composition, a test substance (10 μl) diluted with the reaction mixture and 100 μg/ml integrase protein (10 μl) were added to each well and reacted at 37° C. for 60 min.
Composition of the reaction mixture: 30 mM MOPS (3-morpholinopropanesulfonic acid), 5 mM magnesium chloride, 3 mM DTT (dithiothreitol), 0.1 mg/ml BSA (bovine serum albumin), 5% glycerol, 10% DMSO (dimethyl sulfoxide), 0.01% Tween 20.
Then, 50 nM target DNA (10 μl) was added, reacted at 37° C. for 10 min and washed with phosphate buffer containing 0.1% Tween 20 to stop the reaction.
Then, 100 mU/ml peroxidase labeled anti-digoxigenin antibody solution (Roche, 100 μl) was added, and the mixture was reacted at 30° C. for 60 min, followed by washing with phosphate buffer containing 0.1% Tween 20.
A peroxidase color solution (Bio Rad, 100 μl) was added and allowed to react at room temperature for 4 min. The color reaction was stopped by adding 1N sulfuric acid (100 μl). The absorbance at 450 nm was measured. […]
In the case of `O=C(Nc1cn2ccn(Cc3cccc(Cl)c3)c(=O)c2c(O)c1=O)c1ccccn1` [Example 279, N-[2-(3-chlorobenzyl)-9-hydroxy-1,8-dioxo-1,8-dihydro-2H-pyrido[1,2-a]pyrazin-7-yl]pyridine-2-carboxamide trifluoroacetate], the IC50 is less than 10 nM. Next, `O=c1c(-c2ccc(O)cc2)cn2ccn(Cc3cccc(Cl)c3)c(=O)c2c1O` [Example 142, 2-(3-chlorobenzyl)-9-hydroxy-7-(4-hydroxyphenyl)-2H-pyrido[1,2-a]pyrazine-1,8-dione]: 10 to 100 nM. Take `CNC(=O)c1cn2c(c(O)c1=O)C(=O)N(Cc1ccc(F)c(Cl)c1)CC2` [Example 227, N-methyl-2-(3-chloro-4-fluorobenzyl)-9-hydroxy-1,8-dioxo-1,3,4,8-tetrahydro-2H-pyrido[1,2-a]pyrazine-7-carboxamide]: the IC50 lay within 10 to 100 nM. Next, `CC(=O)CNC(=O)c1cn2c(c(O)c1=O)C(=O)N(Cc1cccc(Cl)c1)CC2` [Example 374, N-(2-oxopropyl)-2-(3-chlorobenzyl)-9-hydroxy-1,8-dioxo-1,3,4,8-tetrahydro-2H-pyrido[1,2-a]pyrazine-7-carboxamide hydrochloride]: 10 to 100 nM; `CNC(=O)c1cn2c(CO)cn(Cc3ccc(F)c(Cl)c3)c(=O)c2c(O)c1=O` [Example 222, 2-(3-chloro-4-fluorobenzyl)-9-hydroxy-4-hydroxymethyl-1,8-dioxo-1,8-dihydro-2H-pyrido[1,2-a]pyrazine-7-carboxylic acid methylamide hydrochloride]: less than 10 nM; `CNC(=O)c1cn2c(c(O)c1=O)C(=O)N(Cc1cccc(Cl)c1)CC2` [Example 219, 2-(3-chlorobenzyl)-9-hydroxy-1,8-dioxo-1,3,4,8-tetrahydro-2H-pyrido[1,2-a]pyrazine-7-carboxylic acid methylamide]: 10 to 100 nM. Take `CC1(C)CN(Cc2ccc(F)cc2)C(=O)c2c(O)c(=O)c(-c3ccccn3)cn21` [Example 414, 2-(4-fluorobenzyl)-9-hydroxy-4,47dimethyl-7-(pyridin-2-yl)-3,4-dihydro-2H-pyrido[1,2-a]pyrazine-1,8-dione hydrochloride]: the IC50 fell in the range of 100 to 1000 nM. In the case of `COCC(=O)Nc1cn2ccn(Cc3cccc(Cl)c3)c(=O)c2c(O)c1=O` [Example 260, N-[2-(3-chlorobenzyl)-9-hydroxy-1,8-dioxo-1,8-dihydro-2H-pyrido[1,2-a]pyrazin-7-yl]-2-methoxyacetamide] it was less than 10 nM. As for `O=C1c2c(O)c(=O)c(-c3nccs3)cn2CCN1Cc1cc2ccccc2o1` [Example 330, 2-(benzofuran-2-ylmethyl)-9-hydroxy-7-(thiazol-2-yl)-3,4-dihydro-2H-pyrido[1,2-a]pyrazine-1,8-dione], the 50% inhibitory concentration (IC50) was less than 10 nM.

As to `CC(C)(C)C(=O)c1cn2c(c(O)c1=O)C(=O)N(Cc1ccc(F)cc1)CC2` [Example 386, 7-(2,2-dimethylpropionyl)-2-(4-fluorobenzyl)-9-hydroxy-3,4-dihydro-2H-pyrido[1,2-a]pyrazine-1,8-dione], the IC50 fell in the range of 10 to 100 nM.

On to `O=C(Nc1cn2ccn(Cc3cccc(Cl)c3)c(=O)c2c(O)c1=O)c1ccncc1` [Example 287, N-[2-(3-chlorobenzyl)-9-hydroxy-1,8-dioxo-1,8-dihydro-2H-pyrido[1,2-a]pyrazin-7-yl]isonicotinamide trifluoroacetate], for which the IC50 is less than 10 nM. Next, `O=C1c2c(O)c(=O)c(-c3nccs3)cn2CCN1CCCc1ccc(Cl)cc1` [Example 297, 2-[3-(4-chlorophenyl)propyl]-9-hydroxy-7-(thiazol-2-yl)-3,4-dihydro-2H-pyrido[1,2-a]pyrazine-1,8-dione hydrochloride]: 10 to 100 nM.

As to `CC(C)C(=O)Nc1cn2c(c(O)c1=O)C(=O)N(Cc1ccc(F)c(Cl)c1)CC2` [Example 349, N-[2-(3-chloro-4-fluorobenzyl)-9-hydroxy-1,8-dioxo-1,3,4,8-tetrahydro-2H-pyrido[1,2-a]pyrazin-7-yl]isobutyramide], the IC50 lay within 10 to 100 nM. As for `O=c1ccn2c(CCO)cn(Cc3ccc(Cl)c(Cl)c3)c(=O)c2c1O` [Example 429, 2-(3,4-dichlorobenzyl)-9-hydroxy-4-(2-hydroxyethyl)-2H-pyrido[1,2-a]pyrazine-1,8-dione hydrochloride], the IC50 lay within 10 to 100 nM. In the case of `COCc1c(C(=O)C(C)(C)C)c(=O)c(O)c2n1CCN(Cc1ccc(F)cc1)C2=O` [Example 409, 7-(2,2-dimethylpropionyl)-2-(4-fluorobenzyl)-9-hydroxy-6-methoxymethyl-3,4-dihydro-2H-pyrido[1,2-a]pyrazine-1,8-dione hydrochloride] it was 10 to 100 nM; in that of `O=C1c2c(O)c(=O)ccn2C2(CCCC2)CN1Cc1ccc(Cl)c(Cl)c1` [Example 19, 2-(3,4-dichlorobenzyl)-9-hydroxy-3,4-dihydro-2H-pyrido[1,2-a]pyrazine-4-spiro-1′-cyclopentane-1,8-dione], 10 to 100 nM; in that of `CC(C)(C)C(=O)c1cn2ccn(Cc3cccc(Cl)c3)c(=O)c2c(O)c1=O` [Example 125, 2-(3-chlorobenzyl)-7-(2,2-dimethylpropionyl)-9-hydroxy-2H-pyrido[1,2-a]pyrazine-1,8-dione hydrochloride], less than 10 nM. In the case of `O=C1c2c(O)c(=O)ccn2CCN1Cc1ccc(Cl)c(F)c1` [Example 57, 2-(4-chloro-3-fluorobenzyl)-9-hydroxy-3,4-dihydro-2H-pyrido[1,2-a]pyrazine-1,8-dione] it was 10 to 100 nM; in that of `CN(c1cn2ccn(Cc3cccc(Cl)c3)c(=O)c2c(O)c1=O)S(C)(=O)=O` [Example 211, N-[2-(3-chlorobenzyl)-9-hydroxy-1,8-dioxo-1,8-dihydro-2H-pyrido[1,2-a]pyrazin-7-yl]-N-methylmethanesulfonamide], less than 10 nM. Regarding `Cn1nc2ccn(Cc3cccc(Cl)c3)c(=O)c2c(O)c1=O` [Example 145, 6-(3-chlorobenzyl)-4-hydroxy-2-methyl-2,6-dihydropyrido[4,3-c]pyridazine-3,5-dione], the IC50 fell in the range of 100 to 1000 nM.

Consider `Cc1cn(Cc2ccc(F)cc2)c(=O)c2c(O)c(=O)c(C(=O)C(C)(C)C)cn12` [Example 408, 7-(2,2-dimethylpropionyl)-2-(4-fluorobenzyl)-9-hydroxy-4-methyl-2H-pyrido[1,2-a]pyrazine-1,8-dione hydrochloride], for which the IC50 was in the range of 10 to 100 nM. For `O=c1ccn2ccn(CCCc3c(Cl)cccc3Cl)c(=O)c2c1O` [Example 11, 2-[3-(2,6-dichlorophenyl)propyl]-9-hydroxy-2H-pyrido[1,2-a]pyrazine-1,8-dione], the IC50 is less than 10 nM. Turning to `O=C1c2c(O)c(=O)ccn2C(c2ccccc2)CN1Cc1ccc(Cl)c(Cl)c1` (stereo not shown) [Example 15, 2-(3,4-dichlorobenzyl)-9-hydroxy-4-phenyl-3,4-dihydro-2H-pyrido[1,2-a]pyrazine-1,8-dione], the 50% inhibitory concentration (IC50) is 10 to 100 nM. On to `O=c1ccn2ccn(CCCc3cccc(Cl)c3)c(=O)c2c1O` [Example 76, 2-[3-(3-chlorophenyl)propyl]-9-hydroxy-2H-pyrido[1,2-a]pyrazine-1,8-dione], for which the IC50 is 10 to 100 nM. In the case of `O=c1c(-c2cc3ccccc3o2)cn2ccn(Cc3cccc(Cl)c3)c(=O)c2c1O` [Example 124, 7-(benzofuran-2-yl)-2-(3-chlorobenzyl)-9-hydroxy-2H-pyrido[1,2-a]pyrazine-1,8-dione hydrochloride] it was 10 to 100 nM.
